Data as given in patent US12629347B2, “Compounds and dosage regimen for use in the prevention or treatment of chronic inflammatory and/or autoimmune diseases” (Immunic AG, priority 2017, dated 2026).
Like-named read-outs stand apart in the source and are kept apart here. Marks after values point to notes of the source that are not given here. Values belong to the compound of their own block, whether it stands above or below them.

How the values were obtained:
[1] = Phase I SAD study (P1-IMU-838-SAD): plasma concentration after single dose; format: in vivo; conditions: human, oral, read-out: maximum plasma concentrations (cmax)
[2] = Phase I SAD study: uric acid in 24 h collected urine; format: in vivo, human; conditions: for Uric acid, Pre dose (−24 h to 0): 24 h urine; for Increase of mean uric acid levels: post dose vs pre dose
Procedure: (§1) During the IMU-838 (vidofludimus-calcium) phase I SAD study (Immunic study number P1-IMU-838-SAD), urine was collected from all volunteers and tested with respect to the amount of clinical relevant anions, including urate and oxalate. In addition, formation of anion crystals in the urine was measured. In this study, IMU-838 was tested as a single dose applied to male healthy volunteers. Five different dose regimens were tested which covered four different doses of IMU-838: 10 mg, 20 mg, 30 mg and 40 mg of IMU-838 in fastened patients, which means no food intake 10 hours prior to the treatment and two hours after dose application. In addition, one dose group received 10 mg of IMU-838 in fed state which means that the 10 mg dose was applied after a high-fat breakfast. Each group consisted of six healthy volunteers, except for the 40 mg dose group with only five volunteers.
The pre-dose value was derived from urine collected 24 hours before application of IMU-838 tablets. The post dose value was obtained by collecting 24 hours urine starting 4 hours after intake of IMU-838.

[3] = Phase I SAD study: RBC in urine / hematuria; format: in vivo, human
Procedure: as §1
Treatment of humans with IMU-838 leads to dose dependent increase of urate excretion through the urine and thus to formation of urate (micro)crystals.

[4] = Phase I MAD trial (P1-IMU-838-MAD): uric acid in 24 h urine, 14 days once daily without predosing; format: in vivo, human
Procedure: Each group consists of 16 patients with 12 individuals receiving active drug IMU-838 (either 30 or 40 mg per day) and 4 patients receiving placebo.
In a randomized, placebo controlled double blind clinical Phase I MAD trial (Immunic study number P1-IMU-838-MAD), IMU-838 was applied to healthy volunteers for 14 days in order to test the effects of IMU-838 on safety and biomarkers for repeated once daily doses over 14 days. In the first part of this study, 12 individuals were treated with 30 mg of IMU-838, 12 individuals were treated with 40 mg of IMU-838 and 8 individuals received placebo (4 individuals in each group). For all 32 individuals, urate levels in the urine was quantified in three periods of 24 hour urine collection. The first collection was at pre-dose (day 0). The second urine collection started four hours after intake of the first dose (day 1, 4 hours to 28 hours). The third collection of urine was performed on the last day of the 14 day treatment cycle (day 14, 4 hours to 28 hours). The amounts of uric acid at those timepoints is depicted in FIG. 2a.

[5] = Three week phase I trial with dose-in phase (25 mg then 50 mg): urate in 24 h urine; format: in vivo, human; conditions: all 20 subjects incl. placebo
Procedure: 8 individuals were treated with 25 mg for 7 days, followed by 14 day treatment with a dose of 50 mg once daily. Another 8 volunteers were treated with placebo (dose 1=0 mg) for 7 days followed by treatment of 50 mg IMU-838. 4 volunteers received placebo for the whole time.
Based on the observations on a) dose dependent effect of IMU-838 on urate levels in the urine and formation of small crystals (example 1) and b) the time course and dose dependence of urate level changes in single volunteers (example 2) a new therapeutic treatment scheme was invented. In this example a treatment scheme was applied to a three week clinical phase I trial consisting of two different doses “dose 1” of 25 mg daily dose and “dose 2” of 50 mg daily dose. 8 subjects received a lower dose 1 for 7 days followed by the higher (double) dose 2 for further 14 days, whereas another 8 subjects received placebo for 7 days then followed by treatment with the 50 mg high dose (dose 2). 4 subjects received placebo during the foll three week period. During this study urine was collected at four different timepoints (pre-dose, day 1, day 7, day 14) and analyzed for urate/uric acid levels.

[6] = Clinical study comparing treatment with and without pre-treatment phase: uric acid excreted in urine; format: in vivo, human; conditions: for Change in Median uric acid excreted in urine: Day 0 (first day of 50 mg dose), n 8
Description: A double-blind clinical study, Placebo controlled, Ascending Dose has been conducted. This study has been reported (Study Number P1-IMU-838-MAD).
Uric acid excretion in urine could be however modified with a pre-treatment period.

[7] = Clinical observations with vidofludimus: blood uric acid, urine RBC, hematuria; format: in vivo, human
Procedure: A novel class of compounds with an inhibitory effect on DHODH, in particular human DHODH, was found and described in EP 2 093 214 A1. Vidofludimus (CAS 717824-30-1) is the free acid of a compound according to formula (I) and is tested in clinical trials in human subjects. […] Higher dose means e.g. doses higher than […] once daily application of vidofludimus in humans. However, doses of compounds of formula (I), e.g. higher than 200 μmol once daily application, sometimes lead to undesirable side effects such as an increased risk of increased red blood cell count (RBC) in the urine (hematuria).
At high vidofludimus doses (i.e. ≥70 mg/day or single doses of ≥210 mg) a decrease in blood uric acid levels and an increase in urine red blood cell count were observed, in very rare cases, presenting as symptomatic hematuria during the first 7 days of treatment. Laboratory findings were consistent with post-renal events and de novo precipitates in the urinary tract.
A side effect that may also be termed adverse effect is a harmful and undesired effect resulting from medication during its use in the prevention and/or treatment of a patient with the inventive compound (I).

[8] = high doses, ≥70 mg/day or single doses of ≥210 mg

Cmax ([1]; single dose 10 mg IMU-838, fasted male healthy volunteers): 1580 ng/mL | Cmax ([1]; male, single dose 40 mg IMU-838, fasted): 7860 ng/mL | Uric acid, Pre dose (−24 h to 0) ([2]; 10 mg fasted group, N = 6, baseline before dosing): 520 mg/24 h | Uric acid, Pre dose (−24 h to 0) ([2]; 40 mg fasted group, N = 4, baseline before dosing): 489^a mg/24 h | Uric acid, Post dose (4 to 28 h) ([2]; single dose 10 mg fasted, N = 6, 24 h urine): 637 mg/24 h | Increase of mean uric acid levels ([2]; single dose 10 mg fasted): 117 mg/24 h | Uric acid, Post dose (4 to 28 h) ([2]; single dose 40 mg fasted, N = 5, 24 h urine): 734 mg/24 h | Increase of mean uric acid levels ([2]; single dose 40 mg fasted): 245 mg/24 h | RBC (red blood cell count) in urine ([3]; single doses 10 to 40 mg): not leading to increase of RBC | increase of uric acid compared with pre-treatment ([4]; 30 mg and 40 mg groups, after the full 14 days treatment): around 30% | amount of uric acid in 24 hour urine ([4]; 30 mg group, pre-dose (day 0) baseline): 605.9 mg | increase of uric acid in urine ([4]; 30 mg once daily, after 14 days vs pre-dose): 29% | increase of uric acid in urine at day one ([4]; 30 mg once daily, day 1 (4 to 28 hours)): no increase | amount of uric acid in 24 hour urine ([4]; 30 mg once daily, day 14): 686.2 mg | amount of uric acid in 24 hour urine ([4]; 40 mg group, pre-dose (day 0) baseline): 541.4 mg | amount of uric acid in 24 hour urine ([4]; 40 mg once daily, day 14): 699.3 mg | amount of uric acid in 24 hour urine ([4]; 40 mg once daily, first day (4-28 hours after intake)): 620.3 mg | increase of uric acid in urine ([4]; 40 mg once daily, first day (4-28 hours) vs pre-dose): 15.2% | mean 24 hours urinary urate level ([5]; after 1 day of treatment (4-28 hours)): 789.5 mg | mean increase in 24 hours urinary urate levels ([5]; after 1 day of treatment (4-28 hours), dose 1 25 mg): 15% | mean 24 hours urinary urate level ([5]; after three weeks (day 21)): 815.9 mg | overall increase of mean urinary urate level ([5]; day 21 vs first day of dose 2): 4% | mean 24 hours urinary urate level ([5]; first day of dose 2 50 mg (day 7 of the full trial)): 789.7 mg | mean 24 hours urinary urate level ([5]; pre-dose baseline): 684.1 mg | urinary excretion of uric acid after treatment initiation ([6]; P1-IMU-838-MAD dose groups): increased in all but the 30 mg group | Change in Median uric acid excreted in urine ([6]; Placebo pre-treatment then 50 mg): 86.5 mg/24 h | Change in Median uric acid excreted in urine ([6]; Pre-dosing 25 mg for 6 days then 50 mg): 49.5 mg/24 h
Compound: COc1cccc(-c2ccc(NC(=O)C3=C(C(=O)O)CCC3)c(F)c2)c1 [IMU-838]
dose limiting side effects like hematuria ([3]; doses up to 40 mg of IMU-838): no dose limiting side effects like hematuria occurred

symptomatic hematuria ([7]; daily doses of 35 mg): no cases of symptomatic hematuria | blood uric acid levels [7, 8]: decrease | urine red blood cell count [7, 8]: increase
Compound: COc1cccc(-c2ccc(NC(=O)C3=C(C(=O)O)CCC3)c(F)c2)c1 [vidofludimus]
